Columns and labels:
Experiment in all cases: relative viability (nuclei count vs DMSO), 5 days (fraction); higher = more cells survive
[1] = compound: C1=CC2=C(C=CC(=C2)C=C3C(=O)NC(=NCC4=CC=CS4)S3)N=C1 [RO-3306] + O=C(CCCCCCC(=O)Nc1ccccc1)NO [Vorinostat] (partner 1 µM)
Procedure, shortened: (§1)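 Lung cancer cell lines were pin-tool dosed in 1536-well plates on the day after seeding, with either a lone drug or a fixed anchor-drug dose plus five library-drug doses (not always all listed) in √10 steps. Nuclei were counted on 4× images after 5 days. Relative viability is the ratio of treated-well to vehicle-well nuclei counts, with each value a median of duplicate plates.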

[2] = compound: O=S(=O)(c1ccccc1)N(CC(F)(F)F)c1ccc(C(O)(C(F)(F)F)C(F)(F)F)cc1 + CC1(C)CCC(c2ccc(Cl)cc2)=C(CN2CCN(c3ccc(C(=O)NS(=O)(=O)c4ccc(N[C@H](CCN5CCOCC5)CSc5ccccc5)c(S(=O)(=O)C(F)(F)F)c4)cc3)CC2)C1 [Navitoclax] (partner 0.5 µM)
Procedure, shortened: as §1

[3] = compound: C1=CC2=C(C=CC(=C2)C=C3C(=O)NC(=NCC4=CC=CS4)S3)N=C1 [RO-3306] + CC(=O)c1c(C)c2cnc(Nc3ccc(N4CCNCC4)cn3)nc2n(C2CCCC2)c1=O [Palbociclib] (partner 0.5 µM)
Procedure, shortened: as §1

[4] = compound: C1=CC2=C(C=CC(=C2)C=C3C(=O)NC(=NCC4=CC=CS4)S3)N=C1 [RO-3306] + CC1(C)CCC(c2ccc(Cl)cc2)=C(CN2CCN(c3ccc(C(=O)NS(=O)(=O)c4ccc(N[C@H](CCN5CCOCC5)CSc5ccccc5)c(S(=O)(=O)C(F)(F)F)c4)cc3)CC2)C1 [Navitoclax] (partner 0.5 µM)
Procedure, shortened: as §1

Cell Line	relative viability ([1]; first compound 0.01 µM)	relative viability ([1]; first compound 0.03162 µM)	relative viability ([1]; first compound 0.1 µM)	relative viability ([1]; first compound 0.3162 µM)	relative viability ([1]; first compound 1 µM)	relative viability ([2]; first compound 0.8 µM)	relative viability ([2]; first compound 2.53 µM)	relative viability ([2]; first compound 8 µM)	relative viability ([3]; first compound 0.01 µM)	relative viability ([3]; first compound 0.03162 µM)	relative viability ([3]; first compound 0.1 µM)	relative viability ([3]; first compound 0.3162 µM)	relative viability ([3]; first compound 1 µM)	relative viability ([4]; first compound 0.01 µM)	relative viability ([4]; first compound 0.03162 µM)	relative viability ([4]; first compound 0.1 µM)	relative viability ([4]; first compound 0.3162 µM)	relative viability ([4]; first compound 1 µM)
BEN	0.565	0.543	0.562	0.595	0.55	0.0593	0.0841	0.0468	0.49	0.438	0.458	0.473	0.476	0.057	0.0628	0.0739	0.0677	0.0527
NCI-H661	0.875	0.727	0.801	0.773	0.807	–	–	–	0.421	0.45	0.394	0.386	0.383	–	–	–	–	–
NCI-H2342	0.691	0.687	0.735	0.751	0.76	–	–	–	0.515	0.512	0.494	0.498	0.527	–	–	–	–	–
SW 1573	0.67	0.598	0.738	0.715	0.763	1.26	0.874	0.641	0.445	0.399	0.377	0.316	0.369	0.838	–	0.892	0.886	0.966
NCI-H1734	0.802	0.631	0.733	0.828	0.734	1.14	0.809	0.801	0.39	0.321	0.333	0.429	0.34	1	0.564	0.922	0.797	0.873
LC-2-ad	0.773	0.635	0.78	0.695	0.626	0.531	0.544	0.518	0.504	0.399	0.512	0.515	0.483	0.451	0.465	0.437	0.408	0.378
NCI-H1651	0.559	0.535	0.529	0.544	0.511	1.15	0.939	1.02	0.542	0.456	0.505	0.538	0.496	0.982	0.854	1.04	1.14	0.882
IA-LM	1.09	0.519	0.973	0.947	0.749	0.765	0.696	0.899	–	–	–	–	–	0.838	0.591	0.717	0.903	1.04
NCI-H838	0.726	0.694	0.722	0.738	0.674	1.3	1.25	1.09	0.228	0.211	0.254	0.254	0.193	1.26	1.14	1.17	1.19	1.21
201T	1.03	0.974	0.959	1.03	1.02	1.18	1.18	1.22	0.31	0.342	0.325	0.36	0.367	1.2	1.21	1.14	1.23	1.23
NCI-H1650	0.648	0.545	0.472	0.558	0.613	1.39	1.07	1.06	0.423	0.246	0.285	0.321	0.274	1.15	1.11	1.19	1.19	0.974
HOP-62	0.615	0.44	0.486	0.611	0.638	1.19	0.999	1.09	0.519	0.481	0.416	0.43	0.446	1.14	1.01	1.07	0.937	1.33
ABC-1	1.21	1	1.03	1.13	0.781	–	–	–	0.869	0.406	0.66	0.799	0.458	–	–	–	–	–
NCI-H1792	–	–	–	–	–	0.798	0.559	0.474	0.688	–	0.653	0.708	0.698	0.74	–	0.614	0.599	0.311
EBC-1	–	–	–	–	–	0.447	0.402	0.356	–	–	–	–	–	0.412	0.357	0.315	0.474	0.29
NCI-H358	0.821	0.603	0.596	0.638	0.524	–	–	–	0.163	0.106	0.126	0.116	0.112	–	–	–	–	–
Calu-6	–	–	–	–	–	0.796	0.823	0.647	–	–	–	–	–	1.06	0.776	0.934	0.908	0.826
SW 900	0.574	0.272	0.462	0.535	0.34	–	–	–	0.61	0.505	0.539	0.542	0.51	–	–	–	–	–
NCI-H650	0.406	0.376	0.41	0.428	0.415	–	–	–	0.32	0.325	0.332	0.328	0.293	–	–	–	–	–
LCLC-103H	0.903	0.663	0.796	0.812	0.766	–	–	–	0.472	0.462	0.514	0.492	0.486	–	–	–	–	–
NCI-H596	0.589	0.512	0.533	0.726	0.713	1.02	0.904	0.826	–	–	–	–	–	0.894	0.967	0.962	0.994	0.72
A549	–	–	–	–	–	1.34	1.12	0.97	–	–	–	–	–	1.36	–	1.2	1.18	1.21
NCI-H1648	0.348	–	0.291	0.408	0.351	–	–	–	0.277	–	0.284	0.246	0.224	–	–	–	–	–
NCI-H1703	–	–	–	–	–	0.926	0.634	0.7	–	–	–	–	–	1.23	0.913	1.08	0.887	1.13

— the supplement of paper PMC10307832
